{"source": "patent US20260070945A1", "about": "“MACROCYCLIC IMMUNOMODULATORS” (Bristol-Myers Squibb Company, priority 2022, published 2026)", "note": "Where a SMILES comes first, the peptide text is derived from it. Bridges are numbered along the chain shown (N, C = ends). [ ]: non-standard residue; d: D form. The star is where a group is joined. Trp(1-CH2COOH) = N[C@@H](Cc1cn(CC(=O)O)c2ccccc12)C(=O)O; Phe(4-COOH) = N[C@@H](Cc1ccc(C(=O)O)cc1)C(=O)O; Bip = N[C@@H](Cc1ccc(-c2ccccc2)cc1)C(=O)O; Phe(3-CN) = N#Cc1cccc(C[C@H](N)C(=O)O)c1; Phe(4-NH2) = Nc1ccc(C[C@H](N)C(=O)O)cc1; Phe(3-F) = N[C@@H](Cc1cccc(F)c1)C(=O)O; Phe(3-Me) = Cc1cccc(C[C@H](N)C(=O)O)c1; Val(3-OH) = CC(C)(O)[C@H](N)C(=O)O; Hexyloxycarbonyl = CCCCCCOC(=O)*; 3Pal = N[C@@H](Cc1cccnc1)C(=O)O; 4Pal = N[C@@H](Cc1ccncc1)C(=O)O; Cha = N[C@@H](CC1CCCCC1)C(=O)O; Carboxymethyl = O=C(O)C*; NMeA = CN[C@@H](C)C(=O)O; Orn = NCCC[C@H](N)C(=O)O; Aun = NCCCCCCCCCCC(=O)O; Dab = NCC[C@H](N)C(=O)O; Abu = CC[C@H](N)C(=O)O; Dap = NC[C@H](N)C(=O)O; AEEA = NCCOCCOCC(=O)O"}
{"target": "T1, PD-1/PD-L1 interaction (PE-labeled human PD-L1-Ig binding to Jurkat cell line over-expressing human PD-1) (Homo sapiens, UniProt Q15116)", "T1 construct": "expressed in transfected cells; host or cells: Jurkat", "T1 sequence (Q15116 25-288)": "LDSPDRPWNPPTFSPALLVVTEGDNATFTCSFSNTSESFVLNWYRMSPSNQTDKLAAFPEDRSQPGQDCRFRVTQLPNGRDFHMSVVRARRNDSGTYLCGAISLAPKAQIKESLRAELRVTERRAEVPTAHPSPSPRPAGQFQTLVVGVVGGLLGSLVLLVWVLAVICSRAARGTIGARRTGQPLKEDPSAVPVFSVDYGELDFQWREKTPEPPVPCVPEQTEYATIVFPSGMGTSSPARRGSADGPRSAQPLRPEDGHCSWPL", "test": "Jurkat-PD-1 Cell Binding High-Content Screening Assay (CBA)", "details": "Jurkat-hPD-1 cells, PE-labeled PD-L1-Ig 20 nM final; read-out: Jurkat HPD1 PDL1 IC50", "outline": "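Compound is added first to the PD-1-expressing Jurkat cells and held 2 h at 37 °C in serum-containing DMEM. The fluorescent PD-L1 fusion follows at 20 nM final for 1 h. Fixed, Hoechst-stained cells are then imaged for bound label.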", "units": {"IC50": "nM"}}
{"smiles": "Cc1cccc(C[C@@H]2NC(=O)[C@H](CC(=O)O)NC(=O)[C@H](Cc3cn(CC(=O)O)c4ccccc34)NC(=O)[C@H]([C@@H](C)O)NC(=O)CSC[C@@H](C(=O)N[C@@H](CCN)C(=O)NCCCCCCCCCCC(=O)O)NC(=O)[C@H]([C@@H](C)O)NC(=O)[C@H](C(C)C)NC(=O)[C@H](CC3CCCCC3)NC(=O)[C@H](CCN)NC(=O)[C@@H](CC(C)C)NC(=O)[C@H](C)N(C)C(=O)[C@H](Cc3ccc(OCC(=O)O)cc3)NC(=O)[C@H](Cc3ccc(-c4ccccc4)cc3)NC(=O)[C@H](Cc3ccc(OCC(=O)O)cc3)NC2=O)c1", "note": "[Example 1304] ({CH2CO}-T[Trp(1-CH2COOH)]D[Phe(3-Me)]Y(Carboxymethyl)[Bip]Y(Carboxymethyl)[NMeA][dL][Dab][Cha]VTC[Dab][Aun]-OH; thioether N-14)", "IC50": 44.6}
{"smiles": "Cc1cccc(C[C@@H]2NC(=O)[C@H](CC(=O)O)NC(=O)[C@H](Cc3ccc(OCC(=O)O)cc3)NC(=O)[C@H](CCN)NC(=O)CSC[C@@H](C(=O)N[C@@H](CCN)C(=O)NCCCCCCCCCCC(=O)O)NC(=O)[C@H](CO)NC(=O)[C@H](C(C)(C)O)NC(=O)[C@H](CC3CCCCC3)NC(=O)[C@H](CCN)NC(=O)[C@@H](CC(C)C)NC(=O)[C@H](C)N(C)C(=O)[C@H](Cc3ccc(OCC(=O)O)cc3)NC(=O)[C@H](Cc3ccc(-c4ccccc4)cc3)NC(=O)[C@H](Cc3cccnc3)NC2=O)c1", "note": "[Example 1305] ({CH2CO}-[Dab]Y(Carboxymethyl)D[Phe(3-Me)][3Pal][Bip]Y(Carboxymethyl)[NMeA][dL][Dab][Cha][Val(3-OH)]SC[Dab][Aun]-OH; thioether N-14)", "IC50": 24.8}
{"smiles": "Cc1cccc(C[C@@H]2NC(=O)[C@H](CC(=O)O)NC(=O)[C@H](Cc3ccc(OCC(=O)O)cc3)NC(=O)[C@H](CCN)NC(=O)CSC[C@@H](C(=O)N[C@@H](CCN)C(=O)NCCCCCCCCCCC(=O)O)NC(=O)[C@H](CO)NC(=O)[C@H](C(C)(C)O)NC(=O)[C@H](CC3CCCCC3)NC(=O)[C@H](CCN)NC(=O)[C@@H](CC(C)C)NC(=O)[C@H](C)N(C)C(=O)[C@H](Cc3ccc(OCC(=O)O)cc3)NC(=O)[C@H](Cc3ccc(-c4ccccc4)cc3)NC(=O)[C@H](Cc3cccc(C#N)c3)NC2=O)c1", "note": "[Example 1306] ({CH2CO}-[Dab]Y(Carboxymethyl)D[Phe(3-Me)][Phe(3-CN)][Bip]Y(Carboxymethyl)[NMeA][dL][Dab][Cha][Val(3-OH)]SC[Dab][Aun]-OH; thioether N-14)", "IC50": 23.9}
{"smiles": "Cc1cccc(C[C@@H]2NC(=O)[C@H](CC(=O)O)NC(=O)[C@H](Cc3ccc(OCC(=O)O)cc3)NC(=O)[C@H](CCN)NC(=O)CSC[C@@H](C(=O)N[C@@H](CCN)C(=O)NCCCCCCCCCCC(=O)O)NC(=O)[C@H](CO)NC(=O)[C@H](C(C)(C)O)NC(=O)[C@H](CC3CCCCC3)NC(=O)[C@H](CCN)NC(=O)[C@@H](CC(C)C)NC(=O)[C@H](C)N(C)C(=O)[C@H](Cc3ccc(OCC(=O)O)cc3)NC(=O)[C@H](Cc3ccc(-c4ccccc4)cc3)NC(=O)[C@H](Cc3ccc(N)cc3)NC2=O)c1", "note": "[Example 1307] ({CH2CO}-[Dab]Y(Carboxymethyl)D[Phe(3-Me)][Phe(4-NH2)][Bip]Y(Carboxymethyl)[NMeA][dL][Dab][Cha][Val(3-OH)]SC[Dab][Aun]-OH; thioether N-14)", "IC50": 41.3}
{"smiles": "CC[C@@H]1NC(=O)[C@H](Cc2cccc(C)c2)NC(=O)[C@H](CC(=O)O)NC(=O)[C@H](Cc2ccc(OCC(=O)O)cc2)NC(=O)[C@H](CCN)NC(=O)CSC[C@@H](C(=O)N[C@@H](CCN)C(=O)NCCCCCCCCCCC(=O)O)NC(=O)[C@H](CO)NC(=O)[C@H](C(C)(C)O)NC(=O)[C@H](CC2CCCCC2)NC(=O)[C@H](CCN)NC(=O)[C@@H](CC(C)C)NC(=O)[C@H](C)N(C)C(=O)[C@H](Cc2ccc(OCC(=O)O)cc2)NC(=O)[C@H](Cc2ccc(-c3ccccc3)cc2)NC1=O", "note": "[Example 1308] ({CH2CO}-[Dab]Y(Carboxymethyl)D[Phe(3-Me)][Abu][Bip]Y(Carboxymethyl)[NMeA][dL][Dab][Cha][Val(3-OH)]SC[Dab][Aun]-OH; thioether N-14)", "IC50": 7}
{"smiles": "Cc1cccc(C[C@@H]2NC(=O)[C@H](CC(=O)O)NC(=O)[C@H](Cc3ccc(C(=O)O)cc3)NC(=O)[C@H](Cc3ccncc3)NC(=O)CSC[C@@H](C(=O)N[C@@H](CCN)C(=O)NCCCCCCCCCCC(=O)O)NC(=O)[C@H](CO)NC(=O)[C@H](C(C)(C)O)NC(=O)[C@H](CC3CCCCC3)NC(=O)[C@H](CCN)NC(=O)[C@@H](CC(C)C)NC(=O)[C@H](C)N(C)C(=O)[C@H](Cc3ccc(OCC(=O)O)cc3)NC(=O)[C@H](Cc3ccc(-c4ccccc4)cc3)NC(=O)[C@H](Cc3cccc(F)c3)NC2=O)c1", "note": "[Example 1309] ({CH2CO}-[4Pal][Phe(4-COOH)]D[Phe(3-Me)][Phe(3-F)][Bip]Y(Carboxymethyl)[NMeA][dL][Dab][Cha][Val(3-OH)]SC[Dab][Aun]-OH; thioether N-14)", "IC50": 12.7}
{"smiles": "Cc1cccc(C[C@@H]2NC(=O)[C@H](CC(=O)O)NC(=O)[C@H](Cc3ccc(OCC(=O)O)cc3)NC(=O)[C@H](CCN)NC(=O)CSC[C@@H](C(=O)N[C@@H](CCN)C(=O)NCCCCCCCCCCC(=O)O)NC(=O)[C@H](CO)NC(=O)[C@H](C(C)(C)O)NC(=O)[C@H](CC3CCCCC3)NC(=O)[C@H](CCN)NC(=O)[C@@H](CC(C)C)NC(=O)[C@H](C)N(C)C(=O)[C@H](Cc3ccc(OCC(=O)O)cc3)NC(=O)[C@H](Cc3ccc(-c4ccccc4)cc3)NC(=O)[C@H](Cc3cccc(F)c3)NC2=O)c1", "note": "[Example 1310] ({CH2CO}-[Dab]Y(Carboxymethyl)D[Phe(3-Me)][Phe(3-F)][Bip]Y(Carboxymethyl)[NMeA][dL][Dab][Cha][Val(3-OH)]SC[Dab][Aun]-OH; thioether N-14)", "IC50": 30.6}
{"smiles": "CCCCCCOC(=O)NCC[C@@H]1NC(=O)[C@@H](CC(C)C)NC(=O)[C@H](C)N(C)C(=O)[C@H](Cc2ccc(OCC(=O)O)cc2)NC(=O)[C@H](Cc2ccc(-c3ccccc3)cc2)NC(=O)[C@H](Cc2ccc(OCC(=O)O)cc2)NC(=O)[C@H](Cc2cccc(C)c2)NC(=O)[C@H](CC(=O)O)NC(=O)[C@H](Cc2ccc(OCC(=O)O)cc2)NC(=O)[C@H]([C@@H](C)O)NC(=O)CSC[C@@H](C(=O)N[C@@H](CCN)C(=O)NCCOCCOCC(=O)NCCCCCCCCCCC(=O)O)NC(=O)[C@H](CCC(=O)O)NC(=O)[C@H](C(C)C)NC(=O)[C@H](CC2CCCCC2)NC1=O", "note": "[Example 1311] ({CH2CO}-TY(Carboxymethyl)D[Phe(3-Me)]Y(Carboxymethyl)[Bip]Y(Carboxymethyl)[NMeA][dL][Dab](Hexyloxycarbonyl)[Cha]VEC[Dab][AEEA][Aun]-OH; thioether N-14)", "IC50": 244}
{"smiles": "Cc1cccc(C[C@@H]2NC(=O)[C@H](CC(=O)O)NC(=O)[C@H](Cc3ccc(OCC(=O)O)cc3)NC(=O)[C@H](CN)NC(=O)CSC[C@@H](C(=O)N[C@@H](CCN)C(=O)NCCOCCOCC(=O)NCCCCCCCCCCC(=O)O)NC(=O)[C@H](CCCN)NC(=O)[C@H](C(C)C)NC(=O)[C@H](CC3CCCCC3)NC(=O)[C@H](CCN)NC(=O)[C@@H](CC(C)C)NC(=O)[C@H](C)N(C)C(=O)[C@H](Cc3ccc(O)cc3)NC(=O)[C@H](Cc3ccc(-c4ccccc4)cc3)NC(=O)[C@H](Cc3ccc(O)cc3)NC2=O)c1", "note": "[Example 1312] ({CH2CO}-[Dap]Y(Carboxymethyl)D[Phe(3-Me)]Y[Bip]Y[NMeA][dL][Dab][Cha]V[Orn]C[Dab][AEEA][Aun]-OH; thioether N-14)", "IC50": 27.4}
{"smiles": "Cc1cccc(C[C@@H]2NC(=O)[C@H](CC(=O)O)NC(=O)[C@H](Cc3ccc(OCC(=O)O)cc3)NC(=O)[C@H](CN)NC(=O)CSC[C@@H](C(=O)N[C@@H](CCN)C(=O)NCCCCCCCCCCC(=O)O)NC(=O)[C@H](CCCN)NC(=O)[C@H](C(C)C)NC(=O)[C@H](CC3CCCCC3)NC(=O)[C@H](CCN)NC(=O)[C@@H](CC(C)C)NC(=O)[C@H](C)N(C)C(=O)[C@H](Cc3ccc(O)cc3)NC(=O)[C@H](Cc3ccc(-c4ccccc4)cc3)NC(=O)[C@H](Cc3ccc(O)cc3)NC2=O)c1", "note": "[Example 1313] ({CH2CO}-[Dap]Y(Carboxymethyl)D[Phe(3-Me)]Y[Bip]Y[NMeA][dL][Dab][Cha]V[Orn]C[Dab][Aun]-OH; thioether N-14)", "IC50": 28.2}
{"smiles": "Cc1cccc(C[C@@H]2NC(=O)[C@H](CC(=O)O)NC(=O)[C@H](Cc3ccc(OCC(=O)O)cc3)NC(=O)[C@H](CN)NC(=O)CSC[C@@H](C(=O)N[C@@H](CCN)C(=O)NCCOCCOCC(=O)NCCCCCCCCCCC(=O)O)NC(=O)[C@H](CCCN)NC(=O)[C@H](C(C)C)NC(=O)[C@H](CC3CCCCC3)NC(=O)[C@H](CCN)NC(=O)[C@@H](CC(C)C)NC(=O)[C@H](C)N(C)C(=O)[C@H](Cc3ccc(O)cc3)NC(=O)[C@H](Cc3ccc(-c4ccccc4)cc3)NC(=O)[C@H](C(C)C)NC2=O)c1", "note": "[Example 1314] ({CH2CO}-[Dap]Y(Carboxymethyl)D[Phe(3-Me)]V[Bip]Y[NMeA][dL][Dab][Cha]V[Orn]C[Dab][AEEA][Aun]-OH; thioether N-14)", "IC50": 7}
{"smiles": "Cc1cccc(C[C@@H]2NC(=O)[C@H](CC(=O)O)NC(=O)[C@H](Cc3ccc(OCC(=O)O)cc3)NC(=O)[C@H](CN)NC(=O)CSC[C@@H](C(=O)N[C@@H](CCN)C(=O)NCCCCCCCCCCC(=O)O)NC(=O)[C@H](CCCN)NC(=O)[C@H](C(C)C)NC(=O)[C@H](CC3CCCCC3)NC(=O)[C@H](CCN)NC(=O)[C@@H](CC(C)C)NC(=O)[C@H](C)N(C)C(=O)[C@H](Cc3ccc(O)cc3)NC(=O)[C@H](Cc3ccc(-c4ccccc4)cc3)NC(=O)[C@H](C(C)C)NC2=O)c1", "note": "[Example 1315] ({CH2CO}-[Dap]Y(Carboxymethyl)D[Phe(3-Me)]V[Bip]Y[NMeA][dL][Dab][Cha]V[Orn]C[Dab][Aun]-OH; thioether N-14)", "IC50": 9.9}
